Experimental data reported in US9079880B2, “Rho kinase inhibitors” (Boehringer Ingelheim International GmbH, priority 2010, dated 2015).

Key:
ROCKII (1-543) [1] = biological target: T1, ROCKII (1-543) (Homo sapiens (Human), UniProt O75116); experiment: Luciferin-Luciferase Assay (PKLight ATP detection); assay type: biochemical; conditions: 750 nM ATP, 500 nM peptide, 7.5 nM kinase
Method: 1. Luciferin-Luciferase Assay
The activity of ROCKII (1-543) kinase was measured utilizing Cambrex PKLight ATP Detection Reagent, a homogeneous assay technology using luciferin-luciferase to quantify residual ATP. The assay was performed in 384-well low-volume, white, non-binding surface microtiter plates (Corning). The assay buffer was 25 mM HEPES, pH 7.5, 10 mM MgCl2, 50 mM KCl, 0.2% BSA, 0.01% CHAPS, 100 μM Na3VO4 and 0.5 mM DTT. Test compounds, dissolved in neat DMSO at 500 μg/mL, were serially diluted for dose response for a final starting concentration of 3 μg/mL in 1% DMSO of assay buffer. ROCKII (1-543) (62,408Da) was diluted in assay buffer to a final concentration of 7.5 nM in a total volume of 15 μL. Positive controls were reaction mixtures containing no test compound; negative controls (blanks) were reaction mixtures containing no kinase. After 15 minutes of pre-incubation of the test compounds with the kinase, a mixture of ATP and peptide substrate ([…]) in assay buffer was added to each well for a final concentration of 750 nM ATP and 500 nM peptide, respectively. After 90 minutes of incubation of the kinase reaction at 28° C. temperature, 10 μL of PKLight ATP Detection Reagent (warmed to room temperature previously) was added to each well. The assay plate was incubated at room temperature for additional 15 minutes and then read on an Analyst in luminescence mode. Dose-response experiments for each of the test compounds were conducted in quadruplet. IC50 values of test compounds represent 50% response of the positive control from the dose-response curve.
Target sequence in this assay (O75116 1-543): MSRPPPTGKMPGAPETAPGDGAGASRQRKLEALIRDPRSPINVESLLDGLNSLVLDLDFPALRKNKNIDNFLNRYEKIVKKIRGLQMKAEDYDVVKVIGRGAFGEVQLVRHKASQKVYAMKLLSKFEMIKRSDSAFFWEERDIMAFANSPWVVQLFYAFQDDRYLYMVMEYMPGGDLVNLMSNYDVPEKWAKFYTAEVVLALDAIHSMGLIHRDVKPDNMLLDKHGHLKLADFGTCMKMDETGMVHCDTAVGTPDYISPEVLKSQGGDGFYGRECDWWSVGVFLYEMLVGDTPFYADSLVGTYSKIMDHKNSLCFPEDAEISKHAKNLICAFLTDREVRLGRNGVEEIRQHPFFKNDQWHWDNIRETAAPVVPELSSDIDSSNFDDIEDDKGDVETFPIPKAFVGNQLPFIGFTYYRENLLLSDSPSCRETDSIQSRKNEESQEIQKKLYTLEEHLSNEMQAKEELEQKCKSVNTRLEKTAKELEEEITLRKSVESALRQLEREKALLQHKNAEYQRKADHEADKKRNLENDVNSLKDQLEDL

ROCKII (1-543) [2] = biological target: T1, ROCKII (1-543); experiment: IMAP Assay (fluorescence polarization, FAM S6 peptide); assay type: biochemical; conditions: 100 μM ATP, 200 nM FAM S6 peptide, 1 nM kinase; read-out: Assay 2 IC50
Method: This assay is performed using FAM S6 substrate peptide (Catalogue #R7184) and IMAP FP Screening Express Kit detection reagents from Molecular Devices (Sunnyvale, Calif.) in IMAP kinase reaction buffer (Tris-HCl, pH 7.2, 10 mM MgCl2, 0.05% NaN3, 0.1% phosphate-free BSA) containing 1 mM DTT. Test compounds dissolved in neat DMSO at 0.3 mg/mL are serially diluted 1 to 3 for concentration response in 100% DMSO. The DMSO serial dilutions are further diluted 33.33-fold in kinase reaction buffer, and 10 μL of this buffer dilution is transferred to Corning black 96-well half area NBS plates for a final top concentration of 3 μg/mL in 1% DMSO. 10 μL aliquot of 3 nM ROCKII (1-543) diluted in kinase reaction buffer is added to each assay well for a final concentration of 1 nM kinase. 10 μL of a mixture of 600 nM FAM S6 peptide and 300 μM ATP diluted in kinase reaction buffer is added to each well for a final concentration of 200 nM peptide and 100 μM ATP. The kinase reaction mixture is incubated for 60 minutes at room temperature. Positive controls are reaction mixtures containing no test compound and negative controls (blanks) are reaction mixtures containing no kinase. The kinase reaction is stopped by addition of 60 μL IMAP progressive binding reagent (Catalog #R7284) diluted 400-fold in 1× Binding buffer A. After 30 min of incubation at room temperature, the plates are read for fluorescence polarization on Analyst Plate Reader using Ex 485 nm, Em 530 nm, and FL 505 dichroic mirror. The mP signals are converted to percent of control (POC) values using the formula: POC=100*(Signal−BCTRL)÷(PCTRL−BCTRL)
Where Signal is the test well signal, BCTRL is the average of background (negative control) well signals on the plate and PCTRL is the average of positive control well signals on the plate. For the concentration-responsive compounds, POC as a function of test compound concentration is fitted to a 4-parameter logistic equation of the form: Y=A+(B−A)/[1+(x/C)D] Where A, B, C, and D are fitted parameters (parameter B is fixed at zero POC), and x and y are the independent and dependent variables, respectively. The IC50 is determined as the inflection point parameter, C.
Target sequence in this assay (O75116 1-543, species assumed): as the sequence (O75116 1-543) above

Compound	IC50 (ROCKII (1-543) [1]) [nM]	IC50 (ROCKII (1-543) [2]) [nM]
O=C(Nc1nc2c(s1)C[C@@H](N1CCOCC1)CC2)c1cccc([C@H]2CCCN2C(=O)c2ccc(-n3ccnc3)cc2)c1 [Compound 122]	3.5	8.3
N#Cc1cccc(NC(=O)N2CCC[C@@H]2c2cccc(C(=O)Nc3ccc(CCN4CCOCC4)cc3)c2)c1 [Compound 16, (R)-2-{3-[4-(2-morpholin-4-yl-ethyl)-phenylcarbamoyl]-phenyl}-pyrrolidine-1-carboxylic acid (3-cyano-phenyl)-amide trifluoro acetic acid]	5.8	23
N#Cc1cccc(NC(=O)N2CCC[C@@H]2c2cccc(C(=O)Nc3ccc(CCN4CCCC4)cc3)c2)c1 [Compound 18]	6	19
O=C(Nc1nc2c(s1)C[C@@H](N1CCOCC1)CC2)c1cccc([C@H]2CCCN2C(=O)c2ccc(-c3ccncc3)cc2)c1 [Compound 132]	2.6	17
CN(C)[C@H]1CCc2nc(NC(=O)c3cccc([C@H]4CCCN4C(=O)c4nnn(-c5nonc5N)c4-c4ccccc4)c3)sc2C1 [Compound 50]	2.2	8.7
N#Cc1ccc(NC(=O)COc2cccc(C(=O)Nc3nc4c(s3)C[C@@H](N3CCOCC3)CC4)c2)cc1 [Compound 13]	3.4	8.5
CN1CCc2nc(NC(=O)c3cccc([C@H]4CCCN4C(=O)N4CCc5c(C#N)cccc54)c3)sc2C1 [Compound 42, 3-[(R)-1-(4-Cyano-2,3-dihydro-indole-1-carbonyl)-pyrrolidin-2-yl]-N-(5-methyl-4,5,6,7-tetrahydro-thiazolo[5,4-c]pyridin-2-yl)-benzamide trifluoroacetic acid]	6.9	44.5
N#Cc1cccc(NC(=O)N2CCC[C@@H]2c2cccc(C(=O)Nc3nc4c(s3)C[C@@H](N)CC4)c2)c1 [Compound 20, (R)-2-[3-((S)-6-Amino-4,5,6,7-tetrahydro-benzothiazol-2-ylcarbamoyl)-phenyl]-pyrrolidine-1-carboxylic acid (3-cyano-phenyl)-amide trifluoroacetic acid]	1.7	0.39
COc1ccc(C(=O)N[C@H](C)c2cccc(C(=O)Nc3nc4c(s3)CN(C)CC4)c2)cc1Cl [Compound 89]	3.9	13
CN1CCc2nc(NC(=O)c3cccc([C@H]4CCCN4C(=O)c4cn5ccc(C#N)cc5n4)c3)sc2C1 [Compound 148, 3-[(R)-1-(7-Cyano-imidazo[1,2-a]pyridine-2-carbonyl)-pyrrolidin-2-yl]-N-(5-methyl-4,5,6,7-tetrahydro-thiazolo[5,4-c]pyridin-2-yl)-benzamide]	2.9	12
N#Cc1ccc(NC(=O)COc2cccc(C(=O)Nc3nc4c(s3)C[C@@H](N)CC4)c2)cc1 [Compound 11, N—((S)-6-amino-4,5,6,7-tetrahydro-benzothiazol-2-yl)-3-[(4-cyano-phenylcarbamoyl)-methoxy]-benzamide]	3.7	11
CN1CCN(C2CCc3nc(NC(=O)c4cccc(OCC(=O)Nc5ccc(C#N)cc5)c4)sc3C2)CC1 (centres unmarked) [Compound 154]	6.5	33
O=C(Nc1nc2c(s1)C[C@@H](N1CCOCC1)CC2)c1cccc([C@H]2CCCN2C(=O)c2ccc3[nH]c(=O)ccc3c2)c1 [Compound 126]	2.7	7
Nc1nonc1-n1nnc(C(=O)N2CCC[C@@H]2c2cccc(C(=O)Nc3nc4c(s3)C[C@@H](N3CCOCC3)CC4)c2)c1-c1ccccc1 [Compound 134]	2.7	30

Now from value to compound:

IC50 (ROCKII (1-543) [1]) [nM]	IC50 (ROCKII (1-543) [2]) [nM]	Compound
1.2	0.5	CCCN[C@H]1CCc2nc(NC(=O)c3cccc([C@@H](C)NC(=O)c4ccc(OC)c(Cl)c4)c3)sc2C1 [Compound 33]
1.6	0.8	CCCN[C@H]1CCc2nc(NC(=O)c3cccc([C@H]4CCCN4C(=O)Nc4cccc(C#N)c4)c3)sc2C1 [Compound 29, (R)-2-[3-((S)-6-propylamino-4,5,6,7-tetrahydro-benzothiazol-2-ylcarbamoyl)-phenyl]-pyrrolidine-1-carboxylic acid (3-cyano-phenyl)-amide]
3.6	6.8	COc1ccc(C(=O)N2CCC[C@@H]2c2cccc(C(=O)Nc3nc4c(s3)C[C@@H](N3CCOCC3)CC4)c2)cc1OC [Compound 112]
1.7	5.8	CN1CCc2nc(NC(=O)c3cccc([C@H]4CCCN4C(=O)c4ccc(-c5ccncc5)cc4)c3)sc2C1 [Compound 26]
0.9	0.4	CCCN[C@H]1CCc2nc(NC(=O)c3cccc([C@@H](C)NC(=O)c4ccc(OC)c(C)c4)c3)sc2C1 [Compound 35]
2.3	3.6	CN(C)[C@H]1CCc2nc(NC(=O)c3cccc([C@H]4CCCN4C(=O)c4ccc5[nH]c(=O)ccc5c4)c3)sc2C1 [Compound 108]
1.7	2.2	CN(C)[C@H]1CCc2nc(NC(=O)c3cccc(OCC(=O)Nc4ccc(C#N)cc4)c3)sc2C1 [Compound 9]
1	0.3	CCCN[C@H]1CCc2nc(NC(=O)c3cccc([C@@H](C)NC(=O)c4ccc(OC)c(OC)c4)c3)sc2C1 [Compound 31, 3,4-dimethoxy-N-{(R)-1-[3-((S)-6-propylamino-4,5,6,7-tetrahydro-benzothiazol-2-ylcarbamoyl)-phenyl]-ethyl}-benzamide]
2.5	4.9	O=C(Nc1nc2c(s1)C[C@@H](N1CCOCC1)CC2)c1cccc([C@H]2CCCN2C(=O)c2cccc(-c3cn[nH]c3)c2)c1 [Compound 140]
1.9	2.1	CN1CCc2nc(NC(=O)c3cccc([C@H]4CCCN4C(=O)c4cccc(-c5cn[nH]c5)c4)c3)sc2C1 [Compound 78]
2.3	6.7	NC(=O)c1ccc2nc(C(=O)N3CCC[C@@H]3c3cccc(C(=O)Nc4nc5c(s4)C[C@@H](N4CCOCC4)CC5)c3)cn2c1 [Compound 124]
2.5	6.3	O=C(Nc1nc2c(s1)C[C@@H](N1CCOCC1)CC2)c1cccc([C@H]2CCCN2C(=O)c2ccc3cc(O)ccc3c2)c1 [Compound 130]
2.5	6.9	O=C(Nc1nc2c(s1)C[C@@H](N1CCOCC1)CC2)c1cccc([C@H]2CCCN2C(=O)c2ccc(-c3cnco3)cc2)c1 [Compound 118]
2.6	3.6	CN(C)[C@H]1CCc2nc(NC(=O)c3cccc([C@H]4CCCN4C(=O)c4ccc(-n5ccnc5)cc4)c3)sc2C1 [Compound 102]
3.1	5.8	COc1ccc(C(=O)N[C@H](C)c2cccc(C(=O)Nc3nc4c(s3)CN(C)CC4)c2)cc1OC [Compound 97]
	1.3	CN(C)[C@H]1CCc2nc(NC(=O)c3cccc([C@H]4CCCN4C(=O)c4csc(-c5cccnc5)n4)c3)sc2C1 [Compound 92]
	0.8	CN1CCc2nc(NC(=O)c3cccc(OCC(=O)Nc4ccc5[nH]ncc5c4)c3)sc2C1 [Compound 23]
	4.2	O=C(Nc1nc2c(s1)C[C@@H](N1CCOCC1)CC2)c1cccc([C@H]2CCCN2C(=O)c2cc(-c3ccncc3)[nH]n2)c1 [Compound 138]
	3.8	CN(C)[C@H]1CCc2nc(NC(=O)c3cccc([C@H]4CCCN4C(=O)c4ccc(-c5ccncc5)cc4)c3)sc2C1 [Compound 88]
